Assays:
hMAO B [1] = biological target: T1, hMAO B (Homo sapiens, UniProt P27338); set-up: method as in PMID 31775359; conditions: cited from earlier work
T1 construct: purchased Sigma Aldrich
T1 sequence (P27338 1-520): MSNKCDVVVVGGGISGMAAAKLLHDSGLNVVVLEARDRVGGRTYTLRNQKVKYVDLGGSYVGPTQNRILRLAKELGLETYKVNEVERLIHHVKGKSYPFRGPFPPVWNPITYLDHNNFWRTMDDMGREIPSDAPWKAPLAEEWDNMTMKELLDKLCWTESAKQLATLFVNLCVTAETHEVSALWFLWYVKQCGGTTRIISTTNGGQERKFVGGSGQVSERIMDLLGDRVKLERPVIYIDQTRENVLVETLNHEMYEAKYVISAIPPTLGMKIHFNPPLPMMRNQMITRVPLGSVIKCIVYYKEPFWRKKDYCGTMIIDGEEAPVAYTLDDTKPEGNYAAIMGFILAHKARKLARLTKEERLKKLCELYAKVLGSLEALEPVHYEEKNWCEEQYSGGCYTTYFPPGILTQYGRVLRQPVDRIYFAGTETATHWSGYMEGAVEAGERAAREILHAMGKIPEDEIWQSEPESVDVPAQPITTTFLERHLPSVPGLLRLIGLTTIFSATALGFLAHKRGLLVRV

[2] = RP-HPLC lipophilicity index log k’; assay type: physicochemical; conditions: MeOH/phosphate buffer pH 7.4; methanol/PBS 60:40 v/v
From the text: To investigate a possible correlation between MAO inhibitory potency and lipophilicity,[7] we calculated log P with three different programs (ChemDraw 15.0; ALOG PS 2.1; ChemSketch 2017, see Table S1 in Supporting Information) and compared the calculated values with experimental lipophilicity indexes as assessed by reversed‐phase (RP) HPLC in isocratic conditions for the majority of compounds. The log of capacity factors (log k’) measured by RP‐HPLC using a mixture of methanol/PBS (60 : 40, v/v) as the mobile phase are reported in Tables 1 and 2, along with Clog P values calculated with ChemDraw. These calculated lipophilicity descriptors correlated with the experimental log k’ values (n=13, r ^2=0.901) better than the other log Ps calculated by ALOG PS and ChemSketch computational tools (r ^2 equal 0.705 and 0.568, respectively). As shown by the scatter plots in Figure 4 and Figure S1 in Supporting Information, there is no evident correlation trend between MAO A/B inhibition data and lipophilicity calculated by the expert system implemented in ChemDraw for compounds achieving finite IC50 values.
Log k’ values (k’=(tr‐t0)/t0) and purity determinations were carried out using a Phenomenex Gemini C18 4.6×150 mm, with 3 μm size particles, built on a Waters double pump HPLC system in isocratic conditions. Injection volumes were 10 μL, flow rate was 0.5 mL/min, and detection was performed with UV (λ=254 and 370 nm). Samples were prepared by dissolving 0.1 mg/mL of the solute in 10 % v/v DMSO and 90 % v/v methanol. Retention times (tr) were measured at least from three separate injections, and dead time (t0) was the retention time of deuterated methanol. The mobile phase was filtered through a Supelco Nylon‐66 membrane 0.45 μm (Merck Life Science Srl, Milan, Italy) before use. For each reference compound, the average tr of three consecutive injections of 10 μL of sample was used to calculate the log k’ values. The eluent consisted of five different mixtures of methanol and PBS buffer 10 mM at pH 7.4, with methanol/buffer ratios ranging from 80 : 20 to 60 : 40 v/v.

SH-SY5Y cells = experiment: DCF-DA assay of ROS production induced by dopamine in SH-SY5Y cells; assay type: cell-based, human; conditions: 10 nM dopamine + 10 nM compound
Procedure: The immortalized neuroblastoma cells are a widely used model for neuroprotection assays, while dopamine at a concentration of 10 nM acts as an inducer of oxidative stress,[8, 9] being metabolized by MAOs to form hydrogen peroxide. Once hydrolyzed and oxidized, DCF acts as the fluorescing probe of the oxidative stress (OS) state of cells. In the presence of an antioxidant, or even of a MAO inhibitor, ROS burden is lowered and DCF fluorescence decreased. […] Its activity is superimposable to that of phenelzine, a nonselective MAO inhibitor used as a positive control in this test.[10] The same experiment performed on dantrolene in our previous work gave similar results.[1]
Reagents for cell cultures were purchased from Life Technologies (ThermoFisher Scientific, Waltham, MA, USA) unless otherwise stated. […]
ROS production in SH‐SY5Y cell line was detected using Cellular Reactive Oxygen Species Detection Assay Kit ab186027 (Abcam, Cambridge, UK), as previously described.[1] […] After incubation and washing, DCF‐DA was added, the plate was incubated, washed again with PBS, and the fluorescence read every 15 min in a 60 min time interval at 535 nm (excitation at 485 nm) using the Tecan Infinite M1000 Pro plate reader.

hMAO A = biological target: T2, hMAO A (Homo sapiens, UniProt P21397); experiment: biochemical
T2 construct: purchased Sigma Aldrich
T2 sequence (P21397 1-527): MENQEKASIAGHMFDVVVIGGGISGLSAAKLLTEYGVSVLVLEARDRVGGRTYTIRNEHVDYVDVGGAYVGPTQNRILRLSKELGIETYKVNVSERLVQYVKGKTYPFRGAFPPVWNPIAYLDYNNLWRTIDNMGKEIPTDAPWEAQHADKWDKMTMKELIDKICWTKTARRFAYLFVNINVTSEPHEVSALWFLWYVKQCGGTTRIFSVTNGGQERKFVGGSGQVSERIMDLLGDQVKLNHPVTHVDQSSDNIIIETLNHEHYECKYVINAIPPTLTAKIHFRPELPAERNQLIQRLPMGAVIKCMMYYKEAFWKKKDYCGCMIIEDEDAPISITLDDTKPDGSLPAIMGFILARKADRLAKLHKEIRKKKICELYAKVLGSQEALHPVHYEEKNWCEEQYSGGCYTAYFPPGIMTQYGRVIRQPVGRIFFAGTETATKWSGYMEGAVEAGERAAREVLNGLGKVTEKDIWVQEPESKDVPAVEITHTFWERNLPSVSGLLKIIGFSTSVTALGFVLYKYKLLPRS
From the text: (§1) Readings were made with Infinite M1000 Pro plate reader (Tecan, Cernusco s.N., Italy) and statistical regressions with Prism software (GraphPad Prism version 5.00 for Windows, GraphPad Software, San Diego, CA, USA).

hAChE = biological target: T3, hAChE (Homo sapiens, UniProt P22303); experiment: biochemical; conditions: read-out: % inhibition at 10 μM hAChE
T3 construct: purchased Sigma Aldrich
From the text: as §1

[3] = Hydrolytic stability in buffered solution (PBS pH 7.4, 37 °C); assay type: physicochemical; conditions: 20 μM in 10 mM PBS pH 7.4, 37 °C, 6 h incubation
Procedure: The hydrolytic stability of some representative imino/hydrazone/hydrazide derivatives was determined in buffered aqueous media. […]. […]. The hydrolytic degradation of 9 in its starting reagents was confirmed by the comparison of the chromatograms of 9 and 2‐chloro‐4‐hydroxyaniline, obtained in the same chromatographic conditions (Figure 6B).
Stability studies in buffered solution were performed following an already described procedure,[23] on a Phenomenex C18 column (150×4.6 mm i.d., 3 μm particle size; Phenomenex, Castel Maggiore, Italy) using a mobile phase consisting of a mixture of methanol‐water (75 : 25 v/v, with aqueous formic acid 0.1 %). The used flow rate was 0.500 mL/min while the injection volume was 20 μL. Wavelength of UV‐Vis detector was adjusted at 254 nm. The chemical stability was evaluated in a phosphate buffer solution pH 7.4 (10 mM HPO4 ^2−/H2PO4 ^−; 100 mM NaCl) at 37 °C. Five different concentrations from 0.5 μM to 20 μM were studied in a 2 h time range (data not shown). Each concentration (0.5, 1, 5, 10 and 20 μM) was tested in triplicate starting from 3 different stocks solution (1 mM) prepared separately. The time range was extended to 6 h only for the samples at 20 μM concentration (Figure 6a).

hMAO B [4] = biological target: T1, hMAO B; experiment: biochemical; assay type: biochemical

T3 sequence (P22303 32-614): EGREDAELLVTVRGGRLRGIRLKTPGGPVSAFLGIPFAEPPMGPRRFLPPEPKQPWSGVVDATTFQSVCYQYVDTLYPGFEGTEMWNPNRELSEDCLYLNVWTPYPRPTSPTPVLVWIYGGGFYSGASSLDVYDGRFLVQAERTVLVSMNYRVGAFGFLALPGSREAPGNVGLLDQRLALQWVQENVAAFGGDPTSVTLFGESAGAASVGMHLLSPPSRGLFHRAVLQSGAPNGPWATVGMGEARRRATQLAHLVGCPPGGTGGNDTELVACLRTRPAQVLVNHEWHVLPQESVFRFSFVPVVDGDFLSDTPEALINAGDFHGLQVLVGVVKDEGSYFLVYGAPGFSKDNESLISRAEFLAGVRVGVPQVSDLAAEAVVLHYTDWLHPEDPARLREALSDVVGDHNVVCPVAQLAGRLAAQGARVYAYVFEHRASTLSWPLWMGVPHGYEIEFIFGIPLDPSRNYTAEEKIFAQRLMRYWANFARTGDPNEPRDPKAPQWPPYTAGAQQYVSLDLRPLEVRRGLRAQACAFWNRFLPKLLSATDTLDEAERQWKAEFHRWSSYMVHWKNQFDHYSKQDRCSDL

SMILES | Ki human MAO B (hMAO B [1]) | log k’ (logarithm of capacity factor, RP-HPLC) [2] | reduction of ROS oxidation of DCF (SH-SY5Y cells) | IC50 (hMAO A) [nM] | inhibition at 10 µM (hAChE) [%] | degradation percentage [3] [%] | IC50 (hMAO B [4]) [nM] | mechanism of hMAO B inhibition (hMAO B [4]; Michaelis-Menten / Lineweaver-Burk) | selectivity for MAO B over MAO A (hMAO B [4]; from IC50 values) [fold] | Ki (hMAO B [4]; inhibition kinetics without preincubation, kynuramine substrate) [nM]
O=C1CN(/N=C/c2ccc(-c3ccc([N+](=O)[O-])cc3)o2)C(O)=N1 [DAN, Dantrolene] | low micromolar range | 0.115 | – | – | – | – | – | – | – | –
N#Cc1ccc(-c2ccc(/C=N/c3ccc(O)cc3Cl)o2)cc1 [Compound 9] | – | 0.782 | effective in reducing ROS oxidation of DCF | 3460 ± 250 | 30 | 76 | 680 ± 50 | competitive | 5 | 500 ± 60

Source: paper PMC8518391, “Synthesis and Biological Evaluation of Dantrolene‐Like Hydrazide and Hydrazone Analogues as Multitarget Agents for Neurodegenerative Diseases” (Chemmedchem, 2021)
